Laboratory results as given in patent US10966998B2, “Cancer therapy via a combination of epigenetic modulation and immune modulation” (The Johns Hopkins University, priority 2013, dated 2021).
Entries after “also recorded” stand apart in the source; their conditions may differ.

Key:
NSCLC cell lines = test: Genome-wide expression (Agilent arrays, GSEA) and DNA methylation of cell lines treated with AZA; type: cell-based, human
Excerpt: For in vitro DNA methylation values, DNA was extracted from cell lines that were either untreated or treated with AZA at day 3, at the end of treatment, and day 10 (7 days post end of treatment) and analyzed by the Illumina Infinium HumanMethylation450 BeadChips (Illumina, Inc., San Diego, Calif., USA). Raw data were imported into R using the “methylumi” package from Bioconductor (22). Data points for probes with detection p-value >0.05 were masked as NA. Δ beta values (Δ beta value=beta value AZA−beta value Mock) were calculated and used to make boxplots. Heat maps were made similarly like those for the TCGA data using informative probes defined by the TCGA data.
For in vitro RNA extracted from cell lines treated with AZA, analyses were done at exactly the same time points as for DNA methylation above. Analyses from wild type colon cancer, HCT116 cells, and genetic knockout counterparts for DNA methyltransferases (DKO cells) were also performed. Expression microarrays were carried out using Agilent Human 4×44K expression arrays (Agilent Technologies, Santa Clara, Calif., USA, Cat#: G4112F). Within-array and between-array normalization was performed using Loess and Aquantile normalization, respectively (23). Median of the M values (M value Expression=log 2 [AZA/Mock] OR log 2 [DKO/HCT116]) was determined for multiple probes associated with the same gene.
For each of the eight lung cancer cell lines (H838, H1299, H358, H1270, A549, H460, HCC4006, HCC827) a ranked gene list was created (genes were sorted by decreasing M value). These eight ranked gene lists were entered in the GSEA tool (51-52) and the enrichment of both Kegg (53) and Reactome (54) pathways in these lists was calculated (default parameters). A gene set was selected when it was enriched in any of the eight cell lines (p value <0.05 and false discovery rate <0.25). The normalized enrichment scores (NES) for the gene sets in each cell line were used to create the heat maps. When a certain gene set was not significant in a cell line, it was assigned a NES of 0.
Expression and methylation data were analyzed to find genes whose re-expression was linked to demethylation after AZA treatment. Genes were selected based on a set of cut-offs, both for the methylation and expression values: A gene was considered to be re-expressed when at day 3 or day 10 the median M value of all the probes linked to that gene was higher than 0.5. Infinium probes were analyzed separately at their distances from the transcription start site for each gene examined. […] Only probes that were associated with a CpG island and that were located within 1000 bp upstream and 1000 bp downstream of the transcription start site were used in the analyses. The probes that passed these filters were validated using the TCGA methylation and expression data (see the definition of informative probes in the “Infinium DNA Methylation Data” section of Methods). […] To better understand the biological implications of the re-expressed genes, the gene lists were searched for transcription factors. Two human transcription factor lists obtained from Ravasi et al. (25) and Vaquerizas et al. (26, 27) were combined and the resulting list was matched to the lists of demethylated and re-expressed genes.
(§1) A previously validated pre-clinical model was employed to examine how AZA alters expression of key pathways in NSCLC cell lines.(29) Cells were treated in vitro with 500 nM AZA for 72 hours then harvested immediately after withdrawal of drug and again one week later for genome wide methylation and expression studies.

[1] = tested on: cell surface PD-L1 in NSCLC lines H838 and H1299; test: Flow cytometry (FACS) of cell surface proteins after AZA treatment; type: cell-based, human; settings: day 10
Description: Frozen cells were thawed in 37 degrees Celsius and washed once with flow-washing buffer. Aliquots of single-cell suspension were then stained with fluorescent-labeled antibodies for 15 mins at room temperature. Each sample was washed twice and re-suspended in flow-washing buffer and analyzed by FACSCalibur. The following antibodies were used: CD274 (12-5983-42 Ebiosciences), HLA abc(12-9983-42 Ebiosciences), CD276(331606 Biolegend), CD119(558934 BD), B2 microblogumin(551337BD), CD58(555921BD). Changes between AZA treated and mock cells were calculated using mean fluorescence intensities (MFI) and the formula log 2([(MFIantibody, treated)−(MFIisotype, treated)]/[(MFIantibody, mock)−(MFIisotype, mock)]).
as §1

[2] = tested on: epithelial cell lines and AML cell lines; test: Gene expression in tumor-derived cell lines with AZA treatment (FIG. 2); type: cell-based

Question: What does the source list for `Nc1ncn([C@@H]2O[C@H](CO)[C@@H](O)[C@H]2O)c(=O)n1` [AZA, 5-azacytidine]?
Answer: immune-related pathways by Gene Set Enrichment Analysis (NSCLC cell lines; 500 nM AZA for 72 hours, NSCLC cell lines): up-regulation of multiple immune-related pathways; IRAK3 expression (NSCLC cell lines; H838 cells): up-regulated; number of genes 4-fold or more up-regulated (NSCLC cell lines; H2170 cells, day 10): 114 genes; IRF7 expression increase (NSCLC cell lines; LUSC cell line H2170): 9 fold; CD80 and CD86 expression (NSCLC cell lines; NSCLC cell lines): not altered; number of genes with high baseline promoter CpG island methylation, demethylation of 25% or more and expression increased 1.4-fold or greater (NSCLC cell lines; NSCLC cell lines): Approximately 300 genes; IFI27 expression (NSCLC cell lines; NSCLC lines): up-regulated; MAVS (antiapoptotic gene) expression (NSCLC cell lines; NSCLC lines): down-regulation; interferon-γ receptor (IFNGR1) and STAT gene (incl. STAT1) expression (NSCLC cell lines; NSCLC lines): up-regulation; transcripts of HLA Class I antigens, B2M, CD58, TAP1, PMSB9 and PSMB8 (NSCLC cell lines; NSCLC lines): upregulates; γ-interferon expression (NSCLC cell lines; NSCLC lines): not induced; antiapoptotic genes BCL2 and BIRC5 (SURVIVIN) expression (NSCLC cell lines; especially cell line H838): decreases; autophagy gene expression (NSCLC cell lines; especially cell line H838): increases; PD-L1 transcript level (NSCLC cell lines; several NSCLC cell lines): up-regulated; cell surface PD-L1 protein level [1]: up-regulated; also recorded: increased; gene expression changes with AZA treatment [2]: pro-inflammatory changes
